What was measured:
TLR4 [1] = assay: ELISA/Bioplex of LPS-mediated cytokine secretion by THP-1 cells; assay type: cell-based, human; settings: 15 μM, 30 min pre-treatment, LPS 100 ng/ml 5 h; relative to P7-Pen
Description: (A) Results of LDH assay and ELISAs analysing cytokine secretion after 5 h of stimulation with LPS (graphs show mean values for at least 3 biological replicates). […] In the tables average values are presented based on 3-5 biological replicates for each experiment. […]
TNF in supernatants was detected using a human TNF-alpha DuoSet ELISA (DY210) (R&D Systems); CXCL10 using a DuoSet ELISA (DY266) (R&D Systems); IL-1β using a BD OptEiA human IL-1β ELISA SetII (#557953, BD Biosciences): IFNβ using a VeriKine-HS™ Human Interferon-Beta Serum ELISA Kit (#41415) from PBL Assay Science. Some supernatants were also analysed by multiplex cytokine assay (Bio-Plex; Bio-Rad Laboratories Inc.) for IL-1β, IL-6, IL-8, CXCL10/IP-10. Results are presented as mean and SD for biological replicates for a representative donor (primary human macrophages), or at least three independent experiments for the model cell line THP-1. Statistical significance was evaluated in GraphPad Prizm 5.03. Data distribution was assumed to be normal but this was not formally tested. The difference between the two groups was determined by two-tailed t test.

[2] = tested on: ANBL-6 multiple myeloma cells; assay: CellTiter-Glo cell viability assay, ANBL-6; assay type: cell-based; settings: for effect on proliferation of ANBL-6 cells: 15 μM; for anti-proliferative activity over a concentration series: 5, 10, 12.5, 15, 20 and 30 μM or 5, 10 and 20 μM, 48 h
Description: Minor effects on the proliferation of the IH-1 and RPMI 8226 cell lines are seen. Cells were seeded at the level shown (left-hand bar of each set) then incubated in medium containing water, 10 μM penetratin or 10 μM P7-A4-Pen for 48 hr (except for INA-6 cells, which were incubated with 12.5 μM penetratin or 12.5 μM P7-A4-Pen). The number of viable cells was detected based on quantitation of ATP by luminescent signal in correlation to a standard curve prepared for each cell line. Results are based on 3-5 biological replicates for each condition, error bars show standard deviation of mean.
Cells were seeded and then incubated in growth medium alone or supplemented with water, DMSO, 15 μM penetratin or 15 μM investigational peptide. The growth medium only and H2O—, DMSO- and penetratin-supplemented cultures constituted controls.
The solid horizontal lines show the amount of cells originally seeded. In (A) ANBL-6 cells were seeded at a level of 10,000 cells/well, then incubated in medium supplemented with water, the control peptide C3A-Pen, P7-Pen, P7-A4-Pen, P7-N4-Pen or P7-K2-Pen for 48 hours. The peptides were included at concentrations of 5, 10, 12.5, 15, 20 or 30 μM. Cells were counted at 48 hours. In (B), ANBL-6 cells were seeded at a level of 5000 cells/well, then incubated in medium supplemented with water, P6-Pen, P-P6-Pen, P7-D4-Pen or P7-A4-Pen for 48 hours. Peptides were included at concentrations of 5, 10 or 20 μM. Cells were counted at 48 hours. […] Results are based on 3 biological replicates, error bars show standard deviation of mean.
Multiple myeloma cells JJN-3 (DSMZ (Germany) no. ACC 541), ANBL-6 (Cellosaurus accession number CVCL_5425, obtained from Dr Diane Jelinek, Mayo Clinic, Rochester, Minn.), INA-6 (Cellosaurus accession number CVCL_5209, obtained from Dr M. Gramatzki, University of Erlangen-Nurnberg, Erlangen, Germany), RPMI-8226 (ATCC CCL-155), and IH-1 (Cellosaurus accession number CVCL_WZ44, established from the pleural effusion of a myeloma patient by Myeloma research group, IKOM, NTNU, Trondheim, Norway) were grown in RPMI-1640 (Sigma-Aldrich Norway, Oslo, Norway) supplemented with 100 nM penicillin/streptomycin and 10% FCS, and for ANBL-6, IH-1 and INA-6 cells 2 ng/ml recombinant IL-6 (Gibco, Thermo Fisher Scientific, Waltham, Mass., USA). Murine multiple myeloma Vk*MYC cells were obtained from M.D. Leif Bergsagel (Mayo Clinic, Richester, Minn., USA) and cultured in RPMI-1640 supplemented with 2% human serum (B^+, The blood bank, St Olav's Hospital, Trondheim, Norway), 100 nM penicillin/streptomycin, L-Glutamine (2 mM) and recombinant IL-6 (1 ng/ml). HEK293T (ATCC CRL-3216) were cultured in DMEM with 10% FCS. THP-1 TRAM knockout (KO) and TLR4 KO cell lines, and matching lentivirally transduced control cell lines, were differentiated in the same way as wild type (WT) THP-1. TRAM KO THP-1 cell line is described in Yurchenko et al. (supra).
To evaluate the potential impact of the P7 peptide on proliferation of tumour cells of lymphoid origin, we performed a CellTiter-Glo Luminescent Cell Viability Assay to address proliferation of several multiple myeloma (MM) cell lines. For the assay, cells were incubated for 48 h in respective media containing either solvent (water), 10 μM control peptide (Pen) or the SLAMF1-derived peptide P7-A4-Pen for 48 h (FIG. 32) (with the exception of the INA-6 cells which were incubated with 12.5 μM control peptide or P7-A4-Pen). […] This effect could be mediated by P7-A4-Pen-induced inhibition of signalling pathways that are crucial for driving proliferation and/or survival of MM tumour cells.

THP-1 cells = assay: LDH cytotoxicity assay in THP-1 cells; settings: CPP screen, 15 μM, 30 min pre-treatment, LPS 100 ng/ml
Description: For every assay, separate wells were seeded for the required controls (Spontaneous LDH Release Controls and Maximum LDH Release Control) with the same amount of cells as used for peptide treatments. All supernatants were analysed in triplicate with the average value of technical replicates taken into calculations.
THP-1 cells were pre-treated with increasing concentrations of P7-Arg11 and control peptide Arg11 for 1 h (FIG. 3).

TLR4 [3] = assay: Western blot of LPS signalling in THP-1 cells and primary human monocytes; assay type: cell-based; settings: data not shown
Description: Protein pellets were dissolved by heating protein pellets for 10 min at 95° C. in buffer containing 4 M urea, 1 SDS (Sigma) and NuPAGE® LDS Sample Buffer (4×) (Thermo Fisher Scientific). Otherwise, lysates were made using 1× RIPA lysis buffer (150 mM NaCl, 50 mM TrisHCl (pH 7.5), 1% Triton X100, 5 mM EDTA, protease inhibitors, phosphatase inhibitors). For Western blot analysis we used pre-cast protein gels NuPAGE™ Novex™ and iBlot Transfer Stacks iBlot Gel Transfer Device (Thermo Fisher Scientific). Proteins were transferred to the membrane by dry-blotting using iBlot® 2 NC Regular/Mini Stacks (Life Technologies) in the iBlot 2 Dry Blotting System (Life Technologies). After secondary antibody incubation, membranes were washed and incubated with HRP substrate solution (SuperSignal™ West Femto Maximum Sensitivity Substrate (Thermo Fisher Scientific)). Images were taken using Odyssey® Fc (LI-CORE). Quantification graphs were generated by the analysis of signal intensities for protein bands (protein of interest and endogenous loading control—β-tubulin from the same membrane) using Odyssey software (LI-CORE). Data were normalised to the expression levels of β-tubulin and presented as a relative fold change to the control sample.
Further, we tested the effect of P7-Pen on phosphorylation of p38 MAPK, IκBα degradation and modification of IRAK1 in human macrophages (THP-1 cells) and primary human monocytes. P7-Pen inhibited LPS-mediated phosphorylation of p38 MAPK (FIG. 24A) and inhibited IRAK1 ubiquitination/phosphorylation (visualised as band shift to higher molecular weight) in primary monocytes (FIG. 24B).

TLR4 [4] = assay: qPCR of LPS-mediated cytokine mRNA expression in THP-1 macrophages; assay type: cell-based, human; settings: control/decoy peptide (data not shown)
Description: SW480 (ATCC CCL-228) and Jurkat (ATCC Clone E6-1; TIB-152) cells were cultured in RPMI 1640 (Sigma-Aldrich, Schnelldorf, Germany) supplemented with 10% heat-inactivated FCS, penicillin/streptomycin (Life Technologies) and 20 mM L-Glutamine. THP-1 cells (ATCC TIB-202) were cultured in RPMI-1640 (high-glucose, ATCC) supplemented with 10% heat inactivated foetal calf serum (FCS), 100 nM penicillin/streptomycin and 5 μM β-mercaptoethanol (Sigma). THP-1 cells were differentiated with 60 ng/ml phorbol 12-myristate 13-acetate (PMA, Sigma) for 72 h, followed by 24 or 48 h in medium without PMA.
Total RNA was isolated from the cells using Qiazol reagent #79306 from QIAGEN, and chloroform extraction followed by purification on RNeasy Mini columns with DNAse digestion (Qiagen). cDNA was prepared using the Maxima First Strand cDNA Synthesis Kit for quantitative real-time polymerase chain reaction (RT-qPCR) (Thermo Fisher Scientific) according to the manufacturer's protocol. qPCR was performed using the PerfeCTa qPCR FastMix (Quanta Biosciences) in replicates and cycled in a StepOnePlus™ Real-Time PCR cycler. The following TaqMan® Gene Expression Assays (Applied Biosystems®) were used: IFNβ (Hs01077958_s1), TNF (Hs00174128_m1), TBP (Hs00427620_m1), CXCL10 (Hs01124251_g1), IL-6 (Hs00174131_m1) and IL-1β (Hs01555410_m1), for human cells; Ifnβ (Mm00439552_s1), Tnf (Mm00443258_m1), Tbp (Mm01277042_m1) and II-1β (Mm00434228_m1), for mouse cells. No RT controls were negative. The level of TBP mRNA was used for normalisation and results presented as relative expression compared to the control untreated sample. Relative expression was calculated using Pfaffl's mathematical model (Pfaffl, Nucleic Acids Research 29(9): e45, 2001). Results are presented as the mean and SD expression fold change for biological replicates relative to non-stimulated cells. Statistical significance was evaluated in GraphPad Prizm 5.03. Data distribution was assumed to be normal but this was not formally tested. The difference between the two groups was determined by two-tailed t test.

“ATVYASVTLTGRQIKIWFQNRRMKWKK (P7-A1-Pen) [Peptide P7-A1-Pen]” was tested, and the “inhibitory activity towards LPS-induced CXCL10, TNF and IL-1β secretion (ELISA)” value (TLR4 [1]) was “totally abrogated activity”.

In the case of “Ac-IKVYASVTLTGRQIKIWFQNRRMKWKK-NH2 [Peptide P7-K2-Pen]”, the “effect on proliferation of ANBL-6 cells” value [2] is reported as “anti-proliferative effect” and the “anti-proliferative activity over a concentration series” value [2] is reported as “clear concentration-dependent effect”.

“Ac-ITVDASVTLTGRQIKIWFQNRRMKWKK-NH2 [Peptide P7-D4-Pen]” was tested, and the “effect on proliferation of ANBL-6 cells” value [2] was “anti-proliferative effect” and the “anti-proliferative activity over a concentration series” value [2] was “clear concentration-dependent effect”.

In the case of “Ac-ITVYASVTLDGRQIKIWFQNRRMKWKK-NH2 [Peptide P7-D10-Pen]”, the “inhibitory activity towards LPS-induced CXCL10, TNF and IL-1β secretion (ELISA)” value (TLR4 [1]) is reported as “high levels of activity”.

“Ac-ITVYASVTLGGRQIKIWFQNRRMKWKK-NH2 [Peptide P7-G10-Pen]” was tested, and the “inhibitory activity towards LPS-induced CXCL10, TNF and IL-1β secretion (ELISA)” value (TLR4 [1]) was “high levels of activity”.

In the case of “Ac-ITVYASVTLTGRRRRRRR-NH2 [Peptide P7-Arg7, ITVYASVTLTGRRRRRRR]”, the “reduction of LPS-mediated toxicity (LDH assay)” value (from here on “reduction”) (THP-1 cells) is reported as “some decrease”.

With “Ac-ITVYASVTLTGRRRRRRRRR-NH2 [Peptide P7-Arg9]” the “reduction” value (THP-1 cells) was “some decrease”.

With “Ac-RRRRRRRRRRRGITVYASVTLT-NH2 [Arg11-P7]” the “reduction” value (THP-1 cells) was “some decrease”.

“IATYASTALTGRQIKIWFQNRRMKWKK (Ac-IATYASTALTGRQIKIWFQNRRMKWKK-NH2) [Peptide P7C3-Pen, control peptide]” was tested, and the “pattern of inhibition of p38 MAPK phosphorylation and IRAK1 modification as seen with P7-Pen” value (TLR4 [3]) was “not”.

“IATYASTALTGRRRRRRRRRRR (Ac-IATYASTALTGRRRRRRRRRRR-NH2) [Peptide P7C3-Arg11, control/decoy peptide]” was tested, and the “LPS- or E. coli particle-induced expression of IFNβ, CXCL10 and TNF” value (TLR4 [4]) was “no effect”.

“IATYASVTLTGRQIKIWFQNRRMKWKK (Ac-IATYASVTLTGRQIKIWFQNRRMKWKK-NH2) [Peptide P7C3A-Pen, control peptide]” was tested, and the “anti-proliferative activity over a concentration series” value [2] was “essentially no anti-proliferative effect”.

In the case of “ITLYASVTLTGRQIKIWFQNRRMKWKK (Ac-ITLYASVTLTGRQIKIWFQNRRMKWKK-NH2) [Peptide P7-L3-Pen]”, the “inhibitory activity towards LPS-induced CXCL10, TNF and IL-1β secretion (ELISA)” value (TLR4 [1]) is reported as “only partially decreased”.

“ITVSASVTLTGRQIKIWFQNRRMKWKK (Ac-ITVSASVTLTGRQIKIWFQNRRMKWKK-NH2) [Peptide P7-S4-Pen]” was tested, and the “effect on proliferation of ANBL-6 cells” value [2] was “anti-proliferative effect”.

In the case of “ITVYASVTATGRQIKIWFQNRRMKWKK (P7-A9-Pen) [Peptide P7-A9-Pen]”, the “pattern of inhibition of p38 MAPK phosphorylation and IRAK1 modification as seen with P7-Pen” value (TLR4 [3]) is reported as “inactive”.

With “ITVYASVTLPAGRQIKIWFQNRRMKWKK (P10-A11-Pen) [P10-Ala11-Pen]” the “inhibitory activity towards LPS-induced CXCL10, TNF and IL-1β secretion (ELISA)” value (TLR4 [1]) was “totally abrogated”.

In the case of “ITVYASVTLPEGRQIKIWFQNRRMKWKK (Ac-ITVYASVTLPEGRQIKIWFQNRRMKWKK-NH2) [Peptide P10-Pen]”, the “inhibitory activity towards LPS-induced CXCL10, TNF and IL-1β secretion (ELISA)” value (TLR4 [1]) is reported as “totally abrogated”.

For “ITVYASVTLTAGRQIKIWFQNRRMKWKK (P11-A11-Pen) [P11-Ala11-Pen]”, the “inhibitory activity towards LPS-induced CXCL10, TNF and IL-1β secretion (ELISA)” value (TLR4 [1]) was “totally abrogated”.

For “ITVYASVTLTEGRQIKIWFQNRRMKWKK (P11-Pen) [Peptide P11-Pen]”, the “inhibitory activity towards LPS-induced CXCL10, TNF and IL-1β secretion (ELISA)” value (TLR4 [1]) was “totally abrogated”.

“NSITVYASVTLTGRQIKIWFQNRRMKWKK (P3sh2-Pen) [Peptide P3sh2-Pen]” was tested, and the “inhibitory activity towards LPS-induced CXCL10, TNF and IL-1β secretion (ELISA)” value (TLR4 [1]) was “did not cause loss of inhibitory activity”.

“TNSITVYASVTLTGRQIKIWFQNRRMKWKK (P3sh1-Pen) [Peptide P3sh1-Pen]” was tested, and the “inhibitory activity towards LPS-induced CXCL10, TNF and IL-1β secretion (ELISA)” value (TLR4 [1]) was “did not cause loss of inhibitory activity”.

From patent US20230220047A1, “PEPTIDES FOR TREATMENT OF SEPSIS AND CANCER” (NORWEGIAN UNIVERSITY OF SCIENCE AND TECHNOLOGY (NTNU), priority 2020, published 2023)
